Test results published in ChEMBL document CHEMBL5036317, “Identification of Unique Quinazolone Thiazoles as Novel Structural Scaffolds for Potential Gram-Negative Bacterial Conquerors” (J Med Chem, 2021).
In brackets after ≈: the same amount, converted by molar mass. Activity calls are given as the source filed them. The calls are words filed in the database; no cut-off is given here.

Legend:
[1] = system: Acinetobacter baumannii; assay: Antibacterial activity against Acinetobacter baumanii assessed as inhibition of bacterial growth measured after 24 hrs by two-fold serial dilution method; assay type: functional
[2] = system: Pseudomonas aeruginosa; assay: Antibacterial activity against Pseudomonas aeruginosa assessed as inhibition of bacterial growth measured after 24 hrs by two-fold serial dilution method; assay type: functional
[3] = system: Staphylococcus aureus; assay: Antibacterial activity against Staphylococcus aureus ATCC 29213 assessed as inhibition of bacterial growth measured after 24 hrs by two-fold serial dilution method; assay type: functional
[4] = system: Enterococcus faecalis; assay: Antibacterial activity against Enterococcus faecalis assessed as inhibition of bacterial growth measured after 24 hrs by two-fold serial dilution method; assay type: functional
[5] = system: Pseudomonas aeruginosa; assay: Antibacterial activity against Pseudomonas aeruginosa assessed as drug resistance by measuring fold change in MIC treated for 16 serial passages and measured every 24 hrs; assay type: functional
[6] = system: Pseudomonas aeruginosa; assay: Antibacterial activity against Pseudomonas aeruginosa ATCC 27853 assessed as inhibition of bacterial growth measured after 24 hrs by two-fold serial dilution method; assay type: functional
[7] = system: Staphylococcus aureus; assay: Antibacterial activity against methicillin-resistant Staphylococcus aureus assessed as inhibition of bacterial growth measured after 24 hrs by two-fold serial dilution method; assay type: functional
[8] = system: Escherichia coli; assay: Antibacterial activity against Escherichia coli assessed as inhibition of bacterial growth measured after 24 hrs by two-fold serial dilution method; assay type: functional
[9] = system: Escherichia coli; assay: Antibacterial activity against Escherichia coli ATCC 25922 assessed as inhibition of bacterial growth measured after 24 hrs by two-fold serial dilution method; assay type: functional
[10] = system: Escherichia coli; assay: Antibacterial activity against Escherichia coli assessed as drug resistance by measuring fold change in MIC treated for 16 serial passages and measured every 24 hrs; assay type: functional
[11] = system: Staphylococcus aureus; assay: Antibacterial activity against Staphylococcus aureus ATCC 25923 assessed as inhibition of bacterial growth measured after 24 hrs by two-fold serial dilution method; assay type: functional
[12] = system: Klebsiella pneumoniae; assay: Antibacterial activity against Klebsiella pneumoniae assessed as inhibition of bacterial growth measured after 24 hrs by two-fold serial dilution method; assay type: functional
[13] = system: Staphylococcus aureus; assay: Antibacterial activity against Staphylococcus aureus assessed as inhibition of bacterial growth measured after 24 hrs by two-fold serial dilution method; assay type: functional
[14] = Haemolytic activity in human erythrocytes incubated for 2 hrs; assay type: ADME, cell-based, Erythrocyte
[15] = system: Cell membrane; assay: Induction of cell membrane disruption in Escherichia coli assessed as reduction in LDH activity at 1 to 4 times MIC measured after 6 hrs; assay type: subcellular
[16] = system: Cell membrane; assay: Induction of inner membrane permeabilization in Pseudomonas aeruginosa assessed as increase in PI uptake by measuring increase in fluorescence intensity incubated for 30 mins by propidium iodide staining based fluorescence analysis
[17] = system: Escherichia coli; assay: Antibacterial activity against Escherichia coli assessed as drug resistance treated for 16 serial passages and measured every 24 hrs; assay type: functional, organism-based
[18] = system: Pseudomonas aeruginosa; assay: Antibacterial activity against Pseudomonas aeruginosa assessed as reduction in metabolic activity at 1 to 6 times MIC measured after 6 hrs by alamar blue assay; assay type: functional, organism-based
[19] = system: Calf thymus DNA; assay: Binding affinity to calf thymus DNA assessed as reduction in acridine orange-DNA complex formation by competitive binding assay; conditions: Bos taurus
[20] = system: Pseudomonas aeruginosa; assay: Induction of ROS generation in Pseudomonas aeruginosa measured after 6 hrs by DCFH-DA staining based assay; assay type: functional, organism-based
[21] = system: Cell membrane; assay: Induction of outer membrane permeabilization in Pseudomonas aeruginosa assessed as increase in NPN uptake by measuring increase in fluorescence intensity incubated for 5 mins by NPN-dye based fluorescence analysis
[22] = system: Escherichia coli; assay: Antibiofilm activity against Escherichia coli assessed as reduction in biofilm biomass at 0 to 6 times MIC measured after 24 hrs by crystal violet staining based assay; assay type: functional, organism-based
[23] = system: Escherichia coli; assay: Induction of ROS generation in Escherichia coli measured after 6 hrs by DCFH-DA staining based assay; assay type: functional, organism-based
[24] = system: Cell membrane; assay: Induction of cytoplasmic membrane depolarization in Escherichia coli assessed as increase in fluorescence intensity at 0 to 6 times MIC by DiSC3-5 dye based fluorescence assay; assay type: subcellular
[25] = system: Cell membrane; assay: Induction of cell membrane disruption in Pseudomonas aeruginosa assessed as reduction in LDH activity at 1 to 4 times MIC measured after 6 hrs; assay type: subcellular
[26] = system: Cell membrane; assay: Induction of inner membrane permeabilization in Escherichia coli assessed as increase in PI uptake by measuring increase in fluorescence intensity incubated for 30 mins by propidium iodide staining based fluorescence analysis
[27] = system: Calf thymus DNA; assay: Binding affinity to calf thymus DNA assessed as assessed as compound-DNA complex formation by measuring hypochromic shift by UV-visible absorption spectrophotometric method; assay type: tissue-based; conditions: Bos taurus
[28] = system: Cell membrane; assay: Induction of outer membrane permeabilization in Escherichia coli assessed as increase in NPN uptake by measuring increase in fluorescence intensity incubated for 5 mins by NPN-dye based fluorescence analysis
[29] = system: Cell membrane; assay: Induction of cell membrane disruption in Pseudomonas aeruginosa assessed as increase in protein leakage at 1 to 6 times MIC measured after 6 hrs by Bradford assay
[30] = system: Escherichia coli; assay: Antibacterial activity against Escherichia coli assessed as reduction in metabolic activity at 1 to 6 times MIC measured after 6 hrs by alamar blue assay; assay type: functional, organism-based
[31] = system: Cell membrane; assay: Induction of cytoplasmic membrane depolarization in Pseudomonas aeruginosa assessed as increase in fluorescence intensity at 0 to 6 times MIC by DiSC3-5 dye based fluorescence assay; assay type: subcellular
[32] = system: Cell membrane; assay: Induction of cell membrane disruption in Escherichia coli assessed as increase in protein leakage at 1 to 6 times MIC measured after 6 hrs by Bradford assay
[33] = system: Pseudomonas aeruginosa; assay: Antibacterial activity against Pseudomonas aeruginosa assessed as drug resistance treated for 16 serial passages and measured every 24 hrs; assay type: functional, organism-based
[34] = system: Pseudomonas aeruginosa; assay: Antibiofilm activity against Pseudomonas aeruginosa assessed as reduction in biofilm biomass at 0 to 6 times MIC measured after 24 hrs by crystal violet staining based assay; assay type: functional, organism-based

Compound | MIC [1] | MIC [2] | MIC [3] | MIC [4] | MIC [6] | MIC [7] | MIC [8] | MIC [9] | MIC [11] | MIC [12] | MIC [13] | HC50 at 2 h [14] | other results
CCn1cc(C(=O)O)c(=O)c2cc(F)c(N3CCNCC3)cc21 [NORFLOXACIN] | 2 µg/mL (≈ 6.26 µM) | 4 µg/mL (≈ 12.5 µM) | 1 µg/mL (≈ 3.13 µM) | 4 µg/mL (≈ 12.5 µM) | 0.5 µg/mL (≈ 1.57 µM) | 8 µg/mL (≈ 25.1 µM) | 4 µg/mL (≈ 12.5 µM) | 2 µg/mL (≈ 6.26 µM) | 2 µg/mL (≈ 6.26 µM) | 2 µg/mL (≈ 6.26 µM) | 4 µg/mL (≈ 12.5 µM) | – | fold change (FC) [5]: 32; fold change (FC) [10]: 32
O=C(/C(=C/c1nccs1)n1cnc2cc(Cl)ccc2c1=O)c1nccs1 | 16 µg/mL (≈ 39.9 µM) | 16 µg/mL (≈ 39.9 µM) | 2 µg/mL (≈ 4.99 µM) | 1 µg/mL (≈ 2.49 µM) | 4 µg/mL (≈ 9.98 µM) | 4 µg/mL (≈ 9.98 µM) | 16 µg/mL (≈ 39.9 µM) | 4 µg/mL (≈ 9.98 µM) | 2 µg/mL (≈ 4.99 µM) | 4 µg/mL (≈ 9.98 µM) | 2 µg/mL (≈ 4.99 µM) | 115 µg/mL | –
N#Cc1ccc(/C=C(/C(=O)c2nccs2)n2cnc3cc(Cl)ccc3c2=O)cc1 | 512 µg/mL (≈ 1220 µM) | 2 µg/mL (≈ 4.77 µM) | 1 µg/mL (≈ 2.39 µM) | 1 µg/mL (≈ 2.39 µM) | 2 µg/mL (≈ 4.77 µM) | 4 µg/mL (≈ 9.55 µM) | 16 µg/mL (≈ 38.2 µM) | 4 µg/mL (≈ 9.55 µM) | 1 µg/mL (≈ 2.39 µM) | 8 µg/mL (≈ 19.1 µM) | 32 µg/mL (≈ 76.4 µM) | > 250 µg/mL | –
O=C(/C(=C/c1ncc[nH]1)n1cnc2cc(Cl)ccc2c1=O)c1nccs1 | 512 µg/mL (≈ 1330 µM) | 16 µg/mL (≈ 41.7 µM) | 512 µg/mL (≈ 1330 µM) | 512 µg/mL (≈ 1330 µM) | 16 µg/mL (≈ 41.7 µM) | 512 µg/mL (≈ 1330 µM) | 256 µg/mL (≈ 667 µM) | 64 µg/mL (≈ 167 µM) | 512 µg/mL (≈ 1330 µM) | 64 µg/mL (≈ 167 µM) | 512 µg/mL (≈ 1330 µM) | > 250 µg/mL | –
O=C(/C(=C/c1ccc2ccccc2c1)n1cnc2cc(Cl)ccc2c1=O)c1nccs1 | 16 µg/mL (≈ 36 µM) | 4 µg/mL (≈ 9.01 µM) | 16 µg/mL (≈ 36 µM) | 16 µg/mL (≈ 36 µM) | 4 µg/mL (≈ 9.01 µM) | 4 µg/mL (≈ 9.01 µM) | 32 µg/mL (≈ 72.1 µM) | 4 µg/mL (≈ 9.01 µM) | 4 µg/mL (≈ 9.01 µM) | 32 µg/mL (≈ 72.1 µM) | 4 µg/mL (≈ 9.01 µM) | 192 µg/mL | –
O=C(/C(=C/c1ccc(Cl)cc1Cl)n1cnc2cc(Cl)ccc2c1=O)c1nccs1 | 16 µg/mL (≈ 34.6 µM) | 8 µg/mL (≈ 17.3 µM) | 2 µg/mL (≈ 4.32 µM) | 8 µg/mL (≈ 17.3 µM) | 1 µg/mL (≈ 2.16 µM) | 8 µg/mL (≈ 17.3 µM) | 2 µg/mL (≈ 4.32 µM) | 2 µg/mL (≈ 4.32 µM) | 1 µg/mL (≈ 2.16 µM) | 1 µg/mL (≈ 2.16 µM) | 32 µg/mL (≈ 69.2 µM) | 176 µg/mL | –
O=C(/C(=C/c1cccs1)n1cnc2cc(Cl)ccc2c1=O)c1nccs1 | 512 µg/mL (≈ 1280 µM) | 64 µg/mL (≈ 160 µM) | 16 µg/mL (≈ 40 µM) | 512 µg/mL (≈ 1280 µM) | 64 µg/mL (≈ 160 µM) | 512 µg/mL (≈ 1280 µM) | 512 µg/mL (≈ 1280 µM) | 32 µg/mL (≈ 80 µM) | 16 µg/mL (≈ 40 µM) | 32 µg/mL (≈ 80 µM) | 16 µg/mL (≈ 40 µM) | 211 µg/mL | –
Cc1ccc(/C=C(/C(=O)c2nccs2)n2cnc3cc(Cl)ccc3c2=O)cc1 | 1 µg/mL (≈ 2.45 µM) | 4 µg/mL (≈ 9.81 µM) | 4 µg/mL (≈ 9.81 µM) | 8 µg/mL (≈ 19.6 µM) | 1 µg/mL (≈ 2.45 µM) | 64 µg/mL (≈ 157 µM) | 32 µg/mL (≈ 78.5 µM) | 1 µg/mL (≈ 2.45 µM) | 2 µg/mL (≈ 4.9 µM) | 128 µg/mL (≈ 314 µM) | 4 µg/mL (≈ 9.81 µM) | > 250 µg/mL | –
O=C(/C(=C/c1ccc(C(F)(F)F)cc1)n1cnc2cc(Cl)ccc2c1=O)c1nccs1 | 8 µg/mL (≈ 17.3 µM) | 1 µg/mL (≈ 2.17 µM) | 1 µg/mL (≈ 2.17 µM) | 2 µg/mL (≈ 4.33 µM) | 1 µg/mL (≈ 2.17 µM) | 4 µg/mL (≈ 8.66 µM) | 1 µg/mL (≈ 2.17 µM) | 2 µg/mL (≈ 4.33 µM) | 2 µg/mL (≈ 4.33 µM) | 1 µg/mL (≈ 2.17 µM) | 32 µg/mL (≈ 69.3 µM) | > 250 µg/mL | Activity [15]: Active; Activity [16]: Dose-Dependent Effect; Activity [17]: inactive; Activity [18]: Active; Activity [19]: Active; Activity [20]: Dose-Dependent Effect; Activity [21]: Dose-Dependent Effect; Activity [22]: Active; Activity [23]: Dose-Dependent Effect; Activity [24]: Active; Activity [25]: Active; Activity [26]: Dose-Dependent Effect; Activity [27]: Active; Activity [28]: Dose-Dependent Effect; Activity [29]: Active; Activity [30]: Active; Activity [31]: Active; Activity [32]: Active; Activity [33]: inactive; Activity [34]: Active
